15 molecules from PubChem BioAssay (NCI) can be followed below.

In general, TGI refers to the concentration giving total growth inhibition. Broadly, the GI50 is the concentration at which growth is held to half of that of the control.

Some test systems named below: MCF7 breast; SK-MEL-2 melanoma; COLO 205 colon; MDA-N; SW-620 colon; NCI-H522 lung; HS 578T breast; M14 melanoma; A549 NSCLC.
Assay in all cases: DTP human tumour cell line panel, 48 h

“And” between values parts separate entries of the source, which are not always exact repeats. Identical values can stand only once.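 All cell lines were grown in 96-well plates and treated with compound for 48 hours. GI50 marks 50% less growth. Definition used: TGI = concentration required for complete inhibition of growth.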 Where only a bound is given, the exact number is not on record here.

As for `Cc1c2oc3c(C)cc(F)c(C(=O)NC4C(=O)NC(C(C)C)C(=O)N5CCCC5C(=O)N(C)CC(=O)N(C)C(C(C)C)C(=O)OC4C)c3nc-2c(C(=O)NC2C(=O)NC(C(C)C)C(=O)N3CCCC3C(=O)N(C)CC(=O)N(C)C(C(C)C)C(=O)OC2C)c(N)c1=O` (stereo not given), the TGI was 60.6 µM in the assay with MCF7 breast; 0.663 µM with SK-MEL-2 melanoma; 0.286 µM and 0.354 µM in the assay with COLO 205 colon; 1.32 µM and 1.12 µM in the assay with MDA-N; 3.77 µM in the assay on SW-620 colon; 1.66 µM and 1.95 µM with NCI-H522 lung. Further, the TGI in the assay with HS 578T breast is more than 100 µM. Also, in the assay with HS 578T breast, the GI50 is 0.5 µM.
For the molecule `OCC1OC(c2ccccc2)CC1O` (stereo not given), the TGI with MCF7 breast, in the assay on SK-MEL-2 melanoma, in the assay with M14 melanoma, in the assay on COLO 205 colon, with A549 NSCLC and in the assay on SW-620 colon was more than 100 µM each time.
Consider `O=c1[nH]c(=O)n(COCc2ccccc2)c2ccccc12`, for which the TGI in the assay on MCF7 breast, in the assay with SK-MEL-2 melanoma, in the assay with M14 melanoma, in the assay on COLO 205 colon, in the assay with A549 NSCLC and in the assay with MDA-N was more than 100 µM throughout. The same molecule yielded a TGI in the assay with SW-620 colon of more than 100 µM.
For `Cc1cc2oc3c(ccc(=O)n3C)c(=O)c2c(C)c1Cl`, the TGI is more than 100 µM in the assay on SK-MEL-2 melanoma; 81.8 µM with M14 melanoma; more than 100 µM in the assay with COLO 205 colon; more than 100 µM with A549 NSCLC; more than 100 µM in the assay on MDA-N; more than 100 µM with SW-620 colon. The TGI in the assay on NCI-H522 lung is more than 100 µM; with HS 578T breast, 93 µM.
As to `OC1(c2ccc(Cl)cc2)c2c(c3ccccc3c3ccccc23)C2=NCCN21` (stereo not given), the TGI in the assay on MCF7 breast was 41.7 µM; with SK-MEL-2 melanoma, 36.7 µM; in the assay with M14 melanoma it was 27 µM; in the assay on COLO 205 colon it was more than 100 µM; with A549 NSCLC it was 59 µM; in the assay on MDA-N it was 51.1 µM. Moreover, the TGI with SW-620 colon was 32.8 µM; with HS 578T breast, 18.6 µM.
`O=C1CCC2(c3ccc(Cl)cc3)Nc3ncncc3N12` (stereo not given): the TGI with MCF7 breast, in the assay with SK-MEL-2 melanoma, in the assay on M14 melanoma, in the assay on A549 NSCLC, in the assay on MDA-N and with SW-620 colon was more than 10 µM in each case. For the same molecule, the TGI with NCI-H522 lung and in the assay with HS 578T breast was more than 10 µM each time.
Consider `COc1cc(-c2nc3cc(Cl)c(Cl)cc3[nH]2)ccc1OCC(=O)N=Nc1c(O)[nH]c2ccc(Cl)cc12`, for which the GI50 with SK-MEL-2 melanoma is 1.28 µM; with COLO 205 colon, 0.344 µM; with NCI-H522 lung, 0.386 µM; with HS 578T breast it was 1.04 µM. The TGI with SK-MEL-2 melanoma was 2.93 µM; in the assay with COLO 205 colon it was 1.22 µM; in the assay with NCI-H522 lung it was 2.08 µM; in the assay on HS 578T breast, 3.71 µM.
In the case of `CC(=O)OCC1OC(n2c(N)c(C#N)c(-c3cccc(Cl)c3)c(C#N)c2=S)C(OC(C)=O)C(OC(C)=O)C1OC(C)=O` (stereo not given), the TGI is more than 100 µM in the assay with MCF7 breast; 45.2 µM with SK-MEL-2 melanoma; 57.1 µM in the assay with M14 melanoma; 29.7 µM in the assay on COLO 205 colon; more than 100 µM in the assay on A549 NSCLC; 54.7 µM in the assay on MDA-N. Moreover, the TGI was more than 100 µM in the assay on SW-620 colon and 91.5 µM with HS 578T breast.
On to `O=C1CC(C(COCc2ccccc2)OCc2ccccc2)CC(=O)N1` (stereo not given), for which the TGI in the assay with MCF7 breast, in the assay with M14 melanoma, in the assay with A549 NSCLC, with MDA-N, with SW-620 colon and with NCI-H522 lung was more than 100 µM throughout. In the assay on HS 578T breast, the TGI is more than 100 µM.
With `CN(/N=C/c1ccc(Cl)cc1)C1=NCCCCN1`, the TGI was more than 100 µM with MCF7 breast; 57.4 µM with M14 melanoma; more than 100 µM in the assay with COLO 205 colon; more than 100 µM in the assay with A549 NSCLC; more than 100 µM in the assay with MDA-N; more than 100 µM in the assay on SW-620 colon. For the same molecule, the TGI in the assay on NCI-H522 lung and in the assay with HS 578T breast was more than 100 µM each time.
For the molecule `CCn1c(=O)c2c3ccc(OC)cc3[nH]c2c2ccc(OC)cc21`, the TGI in the assay on MCF7 breast, in the assay with M14 melanoma, with COLO 205 colon, in the assay with A549 NSCLC, with MDA-N and in the assay with SW-620 colon was more than 100 µM throughout. In addition, the TGI in the assay on NCI-H522 lung and in the assay with HS 578T breast was more than 100 µM each time.
As to `Cc1ccc(N=C2SC(=NN(C)C)SC2=Nc2ccc(C)cc2)cc1`, the TGI in the assay with SK-MEL-2 melanoma, in the assay on COLO 205 colon, with A549 NSCLC, in the assay on MDA-N, with SW-620 colon and in the assay with NCI-H522 lung was more than 100 µM throughout. Also, the TGI in the assay on HS 578T breast was more than 100 µM.
On to `CC(C)(C)OC(=O)n1c(Cl)c(C=O)c2ccccc21`, for which the TGI with SK-MEL-2 melanoma was 96.4 µM; with M14 melanoma, 82.9 µM; in the assay with COLO 205 colon it was more than 100 µM; in the assay on A549 NSCLC, more than 100 µM; in the assay on MDA-N it was more than 100 µM; in the assay with SW-620 colon, more than 100 µM. The TGI in the assay on NCI-H522 lung and with HS 578T breast was more than 100 µM each time.
For the molecule `COc1cc(/C(=C2/O[C@@H]([C@H]3COC(C)(C)O3)[C@H]3OC(C)(C)O[C@@H]23)c2ccc3c(c2)OCO3)cc(OC)c1OC`, the GI50 in the assay with MCF7 breast, in the assay on SK-MEL-2 melanoma, in the assay on COLO 205 colon, in the assay with A549 NSCLC, with SW-620 colon and in the assay with NCI-H522 lung was more than 25 µM throughout. Moreover, the GI50 in the assay on HS 578T breast was more than 25 µM. Further, the TGI in the assay on MCF7 breast, in the assay with SK-MEL-2 melanoma, in the assay with COLO 205 colon, in the assay with A549 NSCLC, in the assay on SW-620 colon and in the assay with NCI-H522 lung was more than 25 µM each time. This molecule also yielded a TGI in the assay with HS 578T breast of more than 25 µM.
With `CCCCOc1ccc2c(c1)CC[C@@H]1[C@@H]2CC[C@]2(C)C(=O)N(CCCC)C(=O)C[C@@H]12`, the TGI in the assay on MCF7 breast, in the assay with SK-MEL-2 melanoma, in the assay on M14 melanoma, in the assay on COLO 205 colon, in the assay on MDA-N and with NCI-H522 lung was more than 100 µM throughout. In the assay on HS 578T breast, this molecule displayed a TGI of more than 100 µM.
